row,Structure (SMILES),melting point
1,"CSc1nc(-c2nn[nH]n2)c(I)c(C(F)(F)F)n1 [Example 15, 5-Iodo-2-methylthio-4-(2H-tetrazol-5-yl)-6-trifluoromethyl-pyrimidine]",196 to 200 °C
2,"O=C1CCCN1c1nc(-n2ccnc2)c(I)c(C(F)(F)F)n1 [Example 14, 1-(4-Imidazol-1-yl-5-iodo-6-trifluoromethylpyrimidin-2-yl)-pyrrolidin-2-one]",195 to 197 °C
3,"Fc1c(-n2ccnc2)nc(-n2ccnc2)nc1C(F)(F)F [Example 19, 5-Fluoro-2,4-diimidazol-1-yl-6-trifluoromethylpyrimidine]",142 to 150 °C (dec.)
4,"C#Cc1c(-n2ccnc2)nc(C)nc1C(F)(F)F [Example 18, 5-Ethynyl-4-imidazol-1-yl-2-methyl-6-trifluoromethylpyrimidine]",121 to 122 °C
5,"C#CCOc1nc(-n2ccnc2)c(I)c(C(F)(F)F)n1 [Example 13, 4-Imidazol-1-yl-5-iodo-2-prop-2-ynyloxy-6-trifluoromethyl-pyrimidine]",128 to 129 °C
